According to US20240287065A1, “COMPOUND AS CDK KINASE INHIBITOR AND USE THEREOF” (TYK MEDICINES (ZHENGZHOU) , INC., priority 2021, published 2024):

Tests used:
xMCF-7/Palbo-R cells = assay: xMCF-7/Palbo-R xenograft tumor model; format: in vivo; conditions: oral tube feeding twice daily for 20 days, Balb/c nude female mice
Method: To establish a xenograft tumor model, 1×10^7 xMCF-7/Palbo-R cells were suspended in 0.2 mL of a mixture of Matrigel and […] (1:1) and injected subcutaneously into 6-8 week-old Balb/c nube female mice. Tumor growth was observed periodically, and the volume (volume=½×(length×width 2)) was measured with a vernier caliper. When the tumors grew to an average volume of 100˜150 mm3, the drug was administered to mice (12 days after inoculation) in random groups according to the tumor size and their body weights. […] The drugs were administered by oral tube feeding twice daily for 20 days. Tumor volume and animal weight were measured twice a week and continued until the end of the experiment. Dosing day was defined as day 0. Measurement time points were day 0, day 3, day 7, day 10, day 14, day 17 and day 20. All mice were euthanized by cervical dislocation. At the end of the experiment, tumors were collected and weighed to calculate TGI values (see Table 4).

OVCAR3 cells = assay: Cell proliferation inhibition assay (MTT, 7 days); format: cell-based; conditions: Homo sapiens, OVCAR-3, 168 h, 7 days incubation
Outline: (§1)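 Cells were seeded per well at 3000 (MCF7, T47D), 2500 (OVCAR3) or 2000 (HCC1806) and attached overnight. Nine 3-fold compound dilutions (10000-1.52 nM before addition to cells, 0.1% DMSO medium) were applied for 7 days, refreshed on day 4, in 4 replicates. MTT (3 h) was read at 570 nm, normalised to DMSO and blank, and IC50 fitted by three-parameter curve.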

T47D cells = assay: Cell proliferation inhibition assay (MTT, 7 days); format: cell-based; conditions: Homo sapiens, 168 h, 7 days incubation
Outline: as §1

MCF7 cells = assay: Cell proliferation inhibition assay (MTT, 7 days); format: cell-based; conditions: Homo sapiens, 168 h, 7 days incubation
Outline: as §1

HCC1806 cells = assay: Cell proliferation inhibition assay (MTT, 7 days); format: cell-based; conditions: Homo sapiens, HCC1806, 168 h, HCC1086 [sic], 7 days incubation
Outline: as §1

MV4-11 cells = assay: MV4-11 xenograft tumor model; format: in vivo; conditions: oral tube feeding twice a day for 15 days, NOD/SCID mice
Method: MV-4-11 cells were cultured in IMEM culture medium containing 10% fetal bovine serum. Cells in the exponential growth phase were collected, and the cells were resuspended in PBS to a suitable concentration for subcutaneous tumor inoculation in nude mice.
To establish a xenograft tumor model, 5×10^6 MV4-11 cells were suspended in 0.1 mL of a 1:1 mixture of PBS and Matrigel and injected subcutaneously into the right dorsal side of 6-8-week-old NOD/SCID mice. Tumor growth was observed periodically, and the volume (volume=½×(length×width^2)) was measured with a vernier caliper. When the tumors grew to an average volume of 100˜150 mm^3, the drug was administered to mice (12 days after inoculation) in random groups according to the tumor size and their body weights. […] Among them, the mice in the Vehicle, 10 mg/kg TY-3301, 10 mg/kg C3, and 20 mg/kg C3 groups were administered twice a day by oral tube feeding for 15 days, and the mice in the 20 mg/kg TY-3300 group were administered once a day by oral tube feeding for 15 days. Tumor volume and animal weight were measured twice a week and continued until the end of the experiment. Dosing day was defined as day 0. Measurement time points were day 0, day 3, day 7, day 10, day 14, and day 15. All mice were euthanized by cervical dislocation. At the end of the experiment, tumors were collected and weighed to calculate TGI values (see Table 6).

OVCAR-3 cells = assay: OVCAR-3 xenograft tumor model; format: in vivo; conditions: 30 mg/kg, oral tube feeding twice daily for 21 days, BALB/c nude female mice
Method: OVCAR-3 cells were cultured in RPMI1640 culture medium containing 20% fetal bovine serum and 10 μg/mL Insalin. Cells in the exponential growth phase were collected, and the cells were resuspended in the mixed solution of PBS and Matrigel in a ratio of 1:1 to a suitable concentration for subcutaneous tumor inoculation in nude mice.
To establish a xenograft tumor model, 1×10^7 OVCAR-3 cells were suspended in 0.2 mL of a mixture of PBS and Matrigel (1:1) and injected subcutaneously into 6-8-week-old BALB/c nube female mice on the right back. Tumor growth was observed periodically, and the volume (volume=½[…](length×width 2)) was measured with a vernier caliper. When the tumors grew to an average volume of 100˜150 mm^3, the drug was administered to mice (27 days after inoculation) in random groups according to the tumor size and their body weights. […] Tumor volume and animal weight were measured twice a week and continued until the end of the experiment. Dosing day was defined as day 0. Measurement time points were day 0, day 3, day 7, day 10, day 14, day 17 and day 21. All mice were euthanized by cervical dislocation. At the end of the experiment, tumors were collected and weighed to calculate TGI values (see Table 5).

IC50 (OVCAR3 cells) [nM] | IC50 (T47D cells) [nM] | IC50 (MCF7 cells) [nM] | IC50 (HCC1806 cells) [nM] | Structure (SMILES) | TGI (xMCF-7/Palbo-R cells; 10 mg/kg) [%] | TGI (MV4-11 cells; 10 mg/kg) [%] | TGI (OVCAR-3 cells) [%] | TGI (xMCF-7/Palbo-R cells; 20 mg/kg) [%] | TGI (MV4-11 cells; 20 mg/kg) [%]
50 to 5200 | ≤ 50 | 50 to 5200 | 50 to 5200 | C[C@@]1(O)CCC[C@H]1n1c(=O)c(C(F)F)cc2cnc(NC3CCN(S(C)(=O)=O)CC3)nc21 [PF-06873600, reference compound] | 36.2 | 60.9 | 52.6 | – | –
≤ 50 | 50 to 5200 | 50 to 5200 | 50 to 5200 | C[C@@]1(O)CCC[C@H]1n1c(=O)c(OC(F)F)cc2cnc(NC3CCN(S(C)(=O)=O)CC3)nc21 [Example 3] | 64.4 | 69.5 | 71.3 | 64.6 | 95.3
